Assay results taken from patent publication US8933233B2, “1,3,4-oxadiazole and 1,3,4-thiadiazole β-lactamase inhibitors” (priority 2012, dated 2015).
Structures can show the parent of a compound that is named as a salt.

Tests used:
[1] = system: bacterial strains that express the class D cephalosporinase OXA-15; assay: Synergy MIC / standard BLI potentiation MIC assay, strains expressing OXA-15; type: cell-based, E. coli; conditions: in presence of a β-lactam; comparator Avibactam (CCC)
In short: (§1)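 Broth microdilution in CAMHB per CLSI M07-A9, ~10^5 CFU/mL inoculum, 18–20 h at 37 °C with aeration; engineered E. coli kept with 25 μg/mL tetracycline. β-lactam 2-fold from 128 to 0.13 μg/mL with BLI fixed at 4 μg/mL, or BLI serially diluted with β-lactam fixed; MIC is lowest concentration without visible turbidity.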

[2] = system: bacterial strains that express KPC β-lactamases; assay: Synergy MIC / standard BLI potentiation MIC assay, strains expressing KPC β-lactamases; type: cell-based, isogenic E. coli and clinical isolates; conditions: more active for at least one KPC strain and/or better spectrum; comparator Avibactam
In short: as §1

Compound	activity against bacterial strains that express OXA-15, compared with Avibactam [1]	activity and/or spectrum of activity against bacterial strains that express KPC β-lactamases, compared with Avibactam [2]
NC1CC(NCc2nnc([C@@H]3CC[C@@H]4CN3C(=O)N4OS(=O)(=O)O)o2)C1 (stereo partly drawn) [Compound 755, (2S,5R)-2-(5-(((3-aminocyclobutyl)amino)methyl)-1,3,4-oxadiazol-2-yl)-7-oxo-1,6-diazabicyclo[3.2.1]octan-6-yl hydrogen sulfate]	more active than Avibactam	more active than Avibactam
O=C1N2C[C@@H](CC[C@H]2c2nnc(CN3CCNCC3)o2)N1OS(=O)(=O)O [Compound 777, (2S,5R)-7-oxo-2-(5-(piperazin-1-ylmethyl)-1,3,4-oxadiazol-2-yl)-1,6-diazabicyclo[3.2.1]octan-6-yl hydrogen sulfate]	more active than Avibactam	more active than Avibactam
